Results: patent publication US11891386B2, “Indole compounds and their use” (ARIAGEN, INC., priority 2017, dated 2024)

What was measured:
[1] = In vivo pharmacokinetic study in Sprague-Dawley rats; conditions: rat; for bioavailability: Sprague-Dawley, plasma, po, 10 mg/kg, PO (10 mg/kg) vs IV (2 mg/kg), read-out: F % (bioavailability); for % of Hepatisc Blood Flow: IV (2 mg/kg)
Description: This example describes pharmacokinetic (PK) studies of the various indole compounds described herein in rats, a rodent species widely used for pre-clinical toxicology evaluation. In the present studies, the test compounds were given to groups of Sprague-Dawley rats (N=3 in each group) intravenously (IV) at 2 mg/kg or orally (PO) at 10 mg/kg. IV doses were formulated in DMSO, while PO doses were formulated in a 50/50 mixture of PEG400 and Tween 80. Blood samples were collected at pre-dose and over a period of 24 hours post-dose. Plasma concentrations of the indole compounds were determined by HPLC.

[2] = system: LL/2 syngeneic mouse tumor model (lung cancer); test: Anti-tumor activity, LL/2 syngeneic mouse tumor model; type: in vivo
Description: (§1) This example describes in vivo studies that evaluated the anti-cancer efficacy of the disclosed indole compounds in syngeneic mouse tumor models. Mice implanted subcutaneously with four types of cancer cells were treated with test indole compounds or vehicle controls as described below.
(§2) A monolayer culture of tumor cells was maintained in vitro in DMEM or RPMI1640 medium supplemented with 10% fetal bovine serum at 37° C. in an atmosphere of 5% CO2. Cells in exponential growth phase were harvested and quantitated by cell counter before tumor inoculation. The cell lines used are described in the table below.
(§3) Four subcutaneous syngeneic mouse tumor models were generated by innoculating female BALB/C or C57BL/6 mice with cancer cells at their right lower or front flank as detailed in the table below:
(§4) Each mouse was inoculated subcutaneously with tumor cells in 0.1 mL of PBS. Treatments were started when the mean tumor size reached approximately 80-120 mm^3 (around 100 mm^3). The administration of the indole compounds and the animal number in each study group are shown in the study design. The date of tumor cell inoculation was denoted as day 0.
(§5) The indole compounds were dissolved in DMSO at the final concentration of 26.7 mg/ml and stored at room temperature.
(§6) Randomization of animals was started when the mean tumor size reached approximately 90 mm^3 to form the mouse study groups. The randomization was performed based on “Matched distribution” method using the multi-task method (StudyDirector™ software, version 3.1.399.19)/randomized block design. The mouse groups (ten in each group) were treated with vehicle (DMSO) or the indole compounds at a dose of 40 mg/kg by i.p. injection, QD for 28 days or longer.
(§7) After tumor cell inoculation, the mice were checked daily for morbidity and mortality. During routine monitoring, the mice were checked for tumor growth and any effects of the treatment on behavior such as mobility, food and water consumption, body weight gain/loss (body weights were measured twice per week after randomization), eye/hair matting, and any other abnormalities. Mortality and observed clinical signs were recorded for individual mice in detail.
(§8) Tumor volumes were measured twice per week in two dimensions using a caliper, and the volume was expressed in mm^3 using the formula: V=(L×W×W)/2, where V is tumor volume, L is tumor length (the longest tumor dimension) and W is tumor width (the longest tumor dimension perpendicular to L). Dosing as well as tumor and body weight measurements was conducted in a Laminar Flow Cabinet. The body weights and tumor volumes were measured by using StudyDirector™ software (version 3.1.399.19). Dosing Holiday
(§9) Tumor growth inhibition percentage (TGI %) is an indicator for antitumor activity of a drug compound, and expressed as: TGI (%)=100×(1−T/C), where T and C are the mean tumor volume (or weight) of the treated and control groups, respectively, on a given day. […]
(§10) In Studies 1 and 3, the anti-tumor activity of ARI-001 in parallel with ARI-002 at 160 mg/kg (mpk), and the anti-tumor activity of ARI-087 in parallel with ARI-002 at 40 mpk were assessed using the EMT-6, Pan02, A20, and LL/2 models. […] In Study 5, the anti-tumor activity of ARI-087 was evaluated in parallel with ARI-143 and ARI-149 at 40 mpk. […]

[3] = system: CYP1A1 in human HepG2 cells; test: EROD assay (7-ethoxy-resorufin-O-deethylase), human HepG2 cells; type: cell-based; design: key to activity group based on EC50 values, in the order of increasing activity: (1) active; (2) more active; (3) most active; conditions: for activity group based on EC50 values, in the order of increasing activity: human EROD assay, oxadiazole derivatives of ITE; for activity in the human EROD assay compared to ARI-001 / ARI-002, in words / EC50: human HepG2 cells; for EC50: EROD assay, 20 hours treatment
Description: (§11) CYP1A1 induction is under the control of the AhR signaling pathway. This Example describes an in vitro assay (7-ethoxy-resorufin-O-deethylase (EROD) assay) that evaluated the AhR modulating activities of the indole compounds described herein. In this assay, the indole compounds were incubated with human HepG2 cells or mouse Hepal-6 cells. The activity of CYP1A1 in the cells was measured by the conversion of substrate 7-ethoxyresorufin, with the readout being a fluorescence signal associated with the conversion product. The EC50 values of the indole compounds as well as the maximum […] induced by them in the assay were determined.
(§12) Human HepG2 cells were obtained from Sigma Aldrich (Catalog 85011430-1VL). Mouse Hepal-6 cells also were obtained from Sigma Aldrich (Catalog 92110305-1V).
(§13) Human HepG2 and Mouse Hepal-6 cells were grown to 60-80% confluency in tissue culture flasks, lifted with non-enzymatic cell dissociation solution (cell stripper), seeded in a 384-well plate at 5,000 cells per well, treated with the test compounds, and incubated for 20 hours overnight at 37° C. The treatment medium was removed and a solution of substrate 7-ethoxyresorufin (ETX) was added to initiate the reaction. The plate was incubated at 37° C. for 30 minutes. The reaction was subsequently terminated by adding tempered methanol. Fluorescent emission was measured at 590 nm with excitation at 530 nm in a FLEXSTATION III instrument (Molecular Devices).

[4] = Separate PK study in mice; type: in vivo; conditions: data not shown
[5] = system: Pan02 syngeneic mouse tumor model (pancreatic cancer); test: Anti-tumor activity, Pan02 syngeneic mouse tumor model; type: in vivo
Description: as §1, §2, §3, §4, §5
Randomization of animals was started when the mean tumor size reached approximately 90 mm^3 to form the mouse study groups. […]
as §7
as §8, with “Dosing as well as tumor and body weight measurements was conducted in a Laminar Flow Cabinet.” left out, “Dosing Holiday” left out
as §9
In Studies 1 and 3, the anti-tumor activity of ARI-001 in parallel with ARI-002 at 160 mg/kg (mpk), and the anti-tumor activity of ARI-087 in parallel with ARI-002 at 40 mpk were assessed using the EMT-6, Pan02, A20, and LL/2 models. […]

[6] = system: A20 syngeneic mouse tumor model (B cell lymphoma); test: Anti-tumor activity, A20 syngeneic mouse tumor model; type: in vivo
Description: as §1, §2, §3, §4, §5, §6, §7, §8, §9, §10

[7] = system: CYP1A1 in mouse Hepal-6 cells; test: EROD assay (7-ethoxy-resorufin-O-deethylase), mouse Hepa1-6 cells; type: cell-based; conditions: EROD assay, 20 hours treatment
Description: as §11, §12, §13

hepatocytes = test: Metabolite analysis in hepatocytes by high-resolution mass spectrometry; type: in vitro ADME; conditions: preliminary studies
From the text: It remains unclear whether halogen substitutions at the indole ring impact the activity and metabolic profiles of the indole compounds described herein.

[8] = Study 3, LL/2, 40 mpk i.p. QD, D28
[9] = Study 3, Pan02, 40 mpk i.p. QD, D60
[10] = Study 3, A20, 40 mpk i.p. QD, D28

Cc1nc(-c2csc(C(=O)c3c[nH]c4ccccc34)n2)no1 [ARI-030, (1H-indol-3-yl)(4-(5-methyl-1,2,4-oxadiazol-3-yl)thiazol-2-yl)methanone]
bioavailability [1]: 0.9% | IV PK profile compared to ARI-001, ARI-002, and ARI-004, in words ([1]; IV): improved IV PK profiles | % of Hepatisc Blood Flow [1]: 28% | TGI (tumor growth inhibition) [2, 8]: 8.4% D28 | activity group based on EC50 values, in the order of increasing activity [3]: active | activity in the human EROD assay compared to ARI-001 / ARI-002, in words [3]: significantly more (about 4 to 900 times more) active than ARI-001 | PK improvement over ARI-001 and ARI-002, in words [4]: confirms the improvement | TGI (tumor growth inhibition) [5, 9]: 23.5% D60 | TGI (tumor growth inhibition) [6, 10]: −0.8% D28

CCC(=O)c1csc(C(=O)c2c[nH]c3cc(F)ccc23)n1 [ARI-143, 1-(2-(6-fluoro-1H-indole-3-carbonyl)thiazol-4-yl)propan-1-one]
bioavailability [1]: 19.3% | IV AUCinf, times higher than ARI-002 ([1]; IV): 1.5 times | plasma clearance, % of that of ARI-002 ([1]; IV): 74% | % of Hepatisc Blood Flow [1]: 19% | PO AUCinf, times higher than that of ARI-002 ([1]; PO): 2.6 times | absolute oral bioavailability, times higher than ARI-002 ([1]; PO): 1.8 times | EC50 [3]: 4.2 nM | EC50 [7]: 2.3 nM | primary metabolites of the indole ring identified (hepatocytes): fewer primary metabolites of the indole ring

Cc1noc(-c2csc(C(=O)c3c[nH]c4ccccc34)n2)n1 [ARI-031, (1H-indol-3-yl)(4-(3-methyl-1,2,4-oxadiazol-5-yl)thiazol-2-yl)methanone]
bioavailability [1]: 6.3% | IV PK profile compared to ARI-001, ARI-002, and ARI-004, in words ([1]; IV): improved IV PK profiles | % of Hepatisc Blood Flow [1]: 103% | activity group based on EC50 values, in the order of increasing activity [3]: active | activity in the human EROD assay compared to ARI-001 / ARI-002, in words [3]: significantly more (about 4 to 900 times more) active than ARI-001 | PK improvement over ARI-001 and ARI-002, in words [4]: confirms the improvement

CCC(=O)c1csc(C(=O)c2c[nH]c3ccc(F)cc23)n1 [ARI-087, 1-(2-(5-fluoro-1H-indole-3-carbonyl)thiazol-4-yl)propan-1-one]
bioavailability [1]: 19.7% | IV AUCinf, % of that of ARI-002 ([1]; IV): 45% | plasma clearance, times higher than ARI-002 ([1]; IV): 3.2 times | % of Hepatisc Blood Flow [1]: 84% | PO AUCinf, % of that of ARI-002 ([1]; PO): 81% | absolute oral bioavailability, times higher than ARI-002 ([1]; PO): 1.8 times | TGI (tumor growth inhibition) ([2]; Study 3, LL/2, 40 mpk i.p. QD, D38): 23.3% D38 | tumor inhibitory activity compared to ARI-002, in words ([2]; Study 3, lung model, 40 mpk): better tumor inhibitory activity than parent compound ARI-002 | EC50 [3]: 34.2 nM | EC50 [7]: 5.8 nM | primary metabolites of the indole ring identified (hepatocytes): fewer primary metabolites of the indole ring | TGI (tumor growth inhibition) [5, 9]: 64.9% D60 | TGI (tumor growth inhibition) [6, 10]: 20.9% D28 | tumor inhibitory activity compared to ARI-002, in words ([6]; Study 3, lymphoma model, 40 mpk): better tumor inhibitory activity than parent compound ARI-002

COC(=O)c1csc(C(=O)c2c[nH]c3ccccc23)n1 [ARI-001, ITE]
bioavailability [1]: 0.4% | % of Hepatisc Blood Flow [1]: 289% | TGI (tumor growth inhibition) ([2]; Study 1, LL/2, 160 mpk, D28): 65.1% D28 | EC50 [3]: 28.9 nM | EC50 [7]: 64 nM | TGI (tumor growth inhibition) ([5]; Study 1, Pan02, 160 mpk, D28): 74.2% D28 | TGI (tumor growth inhibition) ([6]; Study 1, A20, 160 mpk, D26): 54.5% D26

Nc1nnc(-c2csc(C(=O)c3c[nH]c4ccccc34)n2)o1 [ARI-083, (4-(5-amino-1,3,4-oxadiazol-2-yl)thiazol-2-yl)(1H-indol-3-yl)methanone]
bioavailability [1]: 1% | IV PK profile compared to ARI-001, ARI-002, and ARI-004, in words ([1]; IV): improved IV PK profiles | % of Hepatisc Blood Flow [1]: 45% | TGI (tumor growth inhibition) [2, 8]: 24.0% D28 | activity group based on EC50 values, in the order of increasing activity [3]: more active | activity in the human EROD assay compared to ARI-001 / ARI-002, in words [3]: significantly more (about 4 to 900 times more) active than ARI-001 | TGI (tumor growth inhibition) [5, 9]: 2.7% D60 | TGI (tumor growth inhibition) [6, 10]: 22% D28
